Source: patent publication US20240209028A1, “CNP COMPOUNDS” (priority 2022, published 2024)
In brackets after ≈: the same amount, converted by molar mass. Like-named read-outs stand apart in the source and are kept apart here. Starred links: 1 amine or outer side, 2 acyl side, 3 side chain; linkers in the order of their positions; H or OH if unused. Positions of bridges follow the written chain, without caps; N, C: chain ends. Residues, ends and D or L forms follow the SMILES beside them. *: point of attachment. C18 diacid = O=C(O)CCCCCCCCCCCCCCCCC(=O)*; γGlu = O=C(O)[C@H](CCC(=O)[*:2])N[*:1]; X1 = O=C(CCCCCCCCCCCCCCCCc1nnn[nH]1)*; AEEA = NCCOCCOCC(=O)O

How the values were obtained:
[1] = Solubility of CNP compounds at pH 4.0 and pH 6.5; type: physicochemical
Experimental: In order to assess the suitability of CNP compounds for a soluble liquid formulation, the solubility of CNP compounds in pharmaceutically relevant buffers were measured. Solubility at two different pH-levels (pH 4.0 and pH 6.5) was examined as pH is expected to affect solubility.
Preparation of pH 4.0 samples: The pH 4.0 samples of the CNP compounds were prepared by mixing freeze dried peptide with a pH 4.0 5 mM sodium acetate, 250 mM glycerol buffer at room temperature to a nominal concentration of at least 4000-5000 nmol/mL. The pH of the samples was measured and adjusted to pH 4.0 and the samples were allowed to equilibrate at room temperature until next day if not fully dissolved.
Preparation of pH 6.5 samples: The pH 6.5 samples of the CNP compounds were prepared by dissolving the freeze dried peptide in water. While stirring, a part of the peptide solution was transferred to a buffer consisting of 41 mM sodium phosphate and 118 mg/mL glycerol, pH 7.5-8.0, followed by addition of diluted sodium hydroxide followed by another part of the peptide solution and further addition of diluted sodium hydroxide. This procedure was repeated until all of the peptide solution had been added where a nominal concentration of at least 4000-5000 nmol/mL had been reached and the buffer composition was 8 mM sodium phosphate, 23 mg/mL glycerol. The pH of the samples were measured and adjusted to pH 6.5 and the samples were allowed to equilibrate at room temperature until next day if not fully dissolved.
Procedure: Samples at pH 4.0 were prepared as described above and the compound concentration in the supernatant was determined using CAD (Method F, CAD02).
Samples at pH 6.5 were prepared as described above and peptide concentration in the supernatant was determined by CAD (Method F, CAD02).

[2] = High-Molecular-Weight-Protein (HMWP) formation by SEC-UPLC; type: physicochemical; conditions: increase over two weeks at 37° C.
Experimental: In order to assess the propensity of CNP compounds to form covalent dimers or oligomers when formulated the High-Molecular-Weight-Protein content of CNP compound formulations at pH 4.0 and 6.5 were determined.
Procedure: The relative amount of covalent HMWP was assessed using SEC-UPLC. SEC-UPLC was conducted using a Waters UPLC Protein BEH SEC column, 125A, 4.6×150 mm, 1.7 μm, with isocratic elution (0.3 M NaCl, 10 mM NaH2PO4 and 5 mM H3PO4, 50% (v/v) isopropanol, pH 2.4) with a flow rate of 0.3 mL/min, a column temperature at 50° C. with UV-detection at 215 nm. The total area of peaks eluting prior to the monomeric main peak was termed HMWP and given on a percentage scale relative to the total peptide peak area.
(§1) Results: HMWP Formation Following 2-Weeks Quiescent Incubation at 37° C.: Samples at pH 4.0 were prepared as described in Example 5 and the amount of HMWP was determined as described above. Samples were incubated for two weeks at 37° C. and the amount of HMWP was determined again. The increase in HMWP over two weeks incubation at 37° C. are reported in Table 10 (in case the incubation period deviated from two weeks the increase in HMWP was normalized to two weeks assuming a constant formation rate).
as §1, with “Samples” for “Results: HMWP Formation Following 2-Weeks Quiescent Incubation at 37° C.: Samples”, “6.5” for “4.0”, “11” for “10”

[3] = 8 mM sodium phosphate, 23 mg/mL glycerol, pH 6.5, room temperature, read-out: Solubility at pH 6.5
[4] = 5 mM sodium acetate, 250 mM glycerol, pH 4.0, room temperature, read-out: Solubility at pH 4.0

| SMILES | solubility [1, 3] [mM] | 2-Week HMWP formation at pH 6.5 (%), % relative to total peak area [2] [%] | solubility [1, 4] [mM] | 2-Week HMWP formation at pH 4.0 (%), % relative to total peak area ([2]; pH 4.0) [%] |
| --- | --- | --- | --- | --- |
| CC[C@H](C)[C@@H]1NC(=O)[C@H](CCCNC(=N)N)NC(=O)[C@H](CC(=O)O)NC(=O)[C@H](CC(C)C)NC(=O)[C@@H]2CCCN2C(=O)[C@H](CC(C)C)NC(=O)CNC(=O)[C@H](Cc2ccccc2)NC(=O)[C@@H](NC(=O)CNC(=O)[C@H](CO)NC(=O)[C@H](CO)NC(=O)[C@H](CC(C)C)NC(=O)CNC(=O)[C@@H](NC(=O)[C@H](Cc2c[nH]cn2)NC(=O)[C@H](CCC(N)=O)NC(=O)[C@H](C)NC(=O)CNC(=O)[C@H](Cc2c[nH]cn2)NC(=O)[C@H](Cc2ccc(O)cc2)NC(=O)COCCOCCNC(=O)COCCOCCNC(=O)CC[C@H](NC(=O)CCCCCCCCCCCCCCCCC(=O)O)C(=O)O)[C@@H](C)O)CSSC[C@@H](C(=O)O)NC(=O)CNC(=O)[C@H](CC(C)C)NC(=O)CNC(=O)[C@H](CO)NC(=O)[C@H](CC(C)C)NC(=O)[C@H](CO)NC(=O)CNC1=O [compound 1304] ({C18 diacid-γGlu-AEEA-AEEA}-YHGAQHTGLSSGCFGLPLDRIGSLSGLGC-OH; disulfide 13-29) | 6.66 (≈ 24.1 mg/mL) | 1.55 | – | – |
| CC[C@H](C)[C@@H]1NC(=O)[C@H](CCCNC(=N)N)NC(=O)[C@H](CC(=O)O)NC(=O)[C@H](CC(C)C)NC(=O)[C@@H]2CCCN2C(=O)[C@H](CC(C)C)NC(=O)CNC(=O)[C@H](Cc2ccccc2)NC(=O)[C@@H](NC(=O)CNC(=O)[C@H](CO)NC(=O)[C@H](CO)NC(=O)[C@H](CC(C)C)NC(=O)CNC(=O)[C@H](CCCCN)NC(=O)[C@H](CCCCN)NC(=O)[C@H](CCC(N)=O)NC(=O)[C@H](C)NC(=O)CNC(=O)[C@H](Cc2c[nH]cn2)NC(=O)[C@H](CCC(=O)O)NC(=O)COCCOCCNC(=O)COCCOCCNC(=O)CC[C@H](NC(=O)CCCCCCCCCCCCCCCCC(=O)O)C(=O)O)CSSC[C@@H](C(=O)O)NC(=O)CNC(=O)[C@H](CC(C)C)NC(=O)CNC(=O)[C@H](CO)NC(=O)[C@H](CC(C)C)NC(=O)[C@H](CO)NC(=O)CNC1=O [compound 1310] ({C18 diacid-γGlu-AEEA-AEEA}-EHGAQKKGLSSGCFGLPLDRIGSLSGLGC-OH; disulfide 13-29) | 7.61 (≈ 27.4 mg/mL) | 0.87 | – | – |
| CC[C@H](C)[C@@H]1NC(=O)[C@H](CCCNC(=N)N)NC(=O)[C@H](CC(=O)O)NC(=O)[C@H](CC(C)C)NC(=O)[C@@H]2CCCN2C(=O)[C@H](CC(C)C)NC(=O)CNC(=O)[C@H](Cc2ccccc2)NC(=O)[C@@H](NC(=O)CNC(=O)[C@H](CO)NC(=O)[C@H](CO)NC(=O)[C@@H](NC(=O)CNC(=O)[C@@H](NC(=O)[C@H](Cc2c[nH]cn2)NC(=O)[C@H](CCC(N)=O)NC(=O)[C@H](C)NC(=O)CNC(=O)[C@H](Cc2c[nH]cn2)NC(=O)[C@H](Cc2ccc(O)cc2)NC(=O)[C@H](CCCCN)NC(=O)[C@H](CCCNC(=N)N)NC(=O)[C@H](C)NC(=O)COCCOCCNC(=O)COCCOCCNC(=O)CC[C@H](NC(=O)CCCCCCCCCCCCCCCCC(=O)O)C(=O)O)[C@@H](C)O)C(C)C)CSSC[C@@H](C(=O)O)NC(=O)CNC(=O)[C@H](CC(C)C)NC(=O)CNC(=O)[C@H](CO)NC(=O)[C@H](CC(C)C)NC(=O)[C@H](CO)NC(=O)CNC1=O [compound 1351] ({C18 diacid-γGlu-AEEA-AEEA}-ARKYHGAQHTGVSSGCFGLPLDRIGSLSGLGC-OH; disulfide 16-32) | – | – | 6.17 (≈ 24.4 mg/mL) | 1.94 |
| CC[C@H](C)[C@@H]1NC(=O)[C@H](CCCNC(=N)N)NC(=O)[C@H](CC(=O)O)NC(=O)[C@H](CC(C)C)NC(=O)[C@@H]2CCCN2C(=O)[C@H](CC(C)C)NC(=O)CNC(=O)[C@H](Cc2ccccc2)NC(=O)[C@@H](NC(=O)CNC(=O)[C@H](CO)NC(=O)[C@H](CO)NC(=O)[C@@H](NC(=O)CNC(=O)[C@@H](NC(=O)[C@H](CCCCN)NC(=O)[C@H](CCC(N)=O)NC(=O)[C@H](C)NC(=O)CNC(=O)[C@H](Cc2c[nH]cn2)NC(=O)[C@H](Cc2ccc(O)cc2)NC(=O)COCCOCCNC(=O)COCCOCCNC(=O)COCCOCCNC(=O)CC[C@H](NC(=O)CCCCCCCCCCCCCCCCC(=O)O)C(=O)O)[C@@H](C)O)C(C)C)CSSC[C@@H](C(=O)O)NC(=O)CNC(=O)[C@H](CC(C)C)NC(=O)CNC(=O)[C@H](CO)NC(=O)[C@H](CC(C)C)NC(=O)[C@H](CO)NC(=O)CNC1=O [compound 1352] ({C18 diacid-γGlu-AEEA-AEEA-AEEA}-YHGAQKTGVSSGCFGLPLDRIGSLSGLGC-OH; disulfide 13-29) | 7.73 (≈ 28.9 mg/mL) | 0.82 | – | – |
| CC[C@H](C)[C@@H]1NC(=O)[C@H](CCCNC(=N)N)NC(=O)[C@H](CC(=O)O)NC(=O)[C@H](CC(C)C)NC(=O)[C@@H]2CCCN2C(=O)[C@H](CC(C)C)NC(=O)CNC(=O)[C@H](Cc2ccccc2)NC(=O)[C@@H](NC(=O)CNC(=O)[C@H](CCCCN)NC(=O)[C@H](CO)NC(=O)[C@@H](NC(=O)CNC(=O)[C@@H](NC(=O)[C@H](Cc2c[nH]cn2)NC(=O)[C@H](CCC(N)=O)NC(=O)[C@H](C)NC(=O)CNC(=O)[C@H](Cc2c[nH]cn2)NC(=O)[C@H](Cc2ccc(O)cc2)NC(=O)[C@H](CCCCN)NC(=O)[C@H](CCCNC(=N)N)NC(=O)[C@H](C)NC(=O)COCCOCCNC(=O)COCCOCCNC(=O)CC[C@H](NC(=O)CC[C@H](NC(=O)CC[C@H](NC(=O)CCCCCCCCCCCCCCCCC(=O)O)C(=O)O)C(=O)O)C(=O)O)[C@@H](C)O)C(C)C)CSSC[C@@H](C(=O)O)NC(=O)CNC(=O)[C@H](CC(C)C)NC(=O)CNC(=O)[C@H](CO)NC(=O)[C@H](CC(C)C)NC(=O)[C@H](CO)NC(=O)CNC1=O [compound 1420] ({C18 diacid-γGlu-γGlu-γGlu-AEEA-AEEA}-ARKYHGAQHTGVSKGCFGLPLDRIGSLSGLGC-OH; disulfide 16-32) | 1.41 (≈ 6 mg/mL) | – | – | – |
| CC[C@H](C)[C@@H]1NC(=O)[C@H](CCCNC(=N)N)NC(=O)[C@H](CC(=O)O)NC(=O)[C@H](CC(C)C)NC(=O)[C@@H]2CCCN2C(=O)[C@H](CC(C)C)NC(=O)CNC(=O)[C@H](Cc2ccccc2)NC(=O)[C@@H](NC(=O)CNC(=O)[C@H](CCC(N)=O)NC(=O)[C@H](CO)NC(=O)[C@H](CC(C)C)NC(=O)CNC(=O)[C@H](CO)NC(=O)[C@H](CCCCN)NC(=O)[C@H](CCC(N)=O)NC(=O)[C@H](C)NC(=O)CNC(=O)[C@H](Cc2c[nH]cn2)NC(=O)[C@H](Cc2ccc(O)cc2)NC(=O)[C@H](CCCCN)NC(=O)[C@H](CCCNC(=N)N)NC(=O)[C@H](C)NC(=O)COCCOCCNC(=O)COCCOCCNC(=O)CC[C@H](NC(=O)CC[C@H](NC(=O)CCCCCCCCCCCCCCCCc2nnn[nH]2)C(=O)O)C(=O)O)CSSC[C@@H](C(=O)O)NC(=O)CNC(=O)[C@H](CC(C)C)NC(=O)CNC(=O)[C@H](CO)NC(=O)[C@H](CC(C)C)NC(=O)[C@H](CO)NC(=O)CNC1=O [compound 1426] ({X1-γGlu-γGlu-AEEA-AEEA}-ARKYHGAQKSGLSQGCFGLPLDRIGSLSGLGC-OH; disulfide 16-32) | – | – | 11.2 (≈ 46.6 mg/mL) | – |
| CC[C@H](C)[C@@H]1NC(=O)[C@H](CCCNC(=N)N)NC(=O)[C@H](CC(=O)O)NC(=O)[C@H](CC(C)C)NC(=O)[C@@H]2CCCN2C(=O)[C@H](CC(C)C)NC(=O)CNC(=O)[C@H](Cc2ccccc2)NC(=O)[C@@H](NC(=O)CNC(=O)[C@H](CCC(N)=O)NC(=O)[C@H](CO)NC(=O)[C@H](CC(C)C)NC(=O)CNC(=O)[C@H](CCCCN)NC(=O)[C@H](CCCCN)NC(=O)[C@H](CCC(N)=O)NC(=O)[C@H](C)NC(=O)CNC(=O)[C@@H]2CCCN2C(=O)[C@H](C)NC(=O)[C@H](CCC(N)=O)NC(=O)CNC(=O)COCCOCCNC(=O)COCCOCCNC(=O)CC[C@H](NC(=O)CCCCCCCCCCCCCCCCC(=O)O)C(=O)O)CSSC[C@@H](C(=O)O)NC(=O)CNC(=O)[C@H](CC(C)C)NC(=O)CNC(=O)[C@H](CO)NC(=O)[C@H](CC(C)C)NC(=O)[C@H](CO)NC(=O)CNC1=O [compound 1484] ({C18 diacid-γGlu-AEEA-AEEA}-GQAPGAQKKGLSQGCFGLPLDRIGSLSGLGC-OH; disulfide 15-31; C-terminus assumed) | 2.33 (≈ 8.7 mg/mL) | – | – | – |
